Results taken from patent publication US9409866B2, “Pyridine-2-amides useful as CB2 agonists” (Hoffmann-La Roche Inc., priority 2012, dated 2016).
Where two headings read alike, the source gives them in different places.

How the values were obtained:
human CB2 receptors = human CB2 receptors (Homo sapiens (Human), UniProt P34972); experiment: functional cAMP assay, CHO cells expressing human CB2; format: cell-based
How it was run: (§1)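 CHO-hCB1/hCB2 cells, KRB + 1 mM IBMX preincubation 30 min 30 °C; cpd 30 min 30 °C; lysis + TR-FRET cAMP detection, 2 h RT; cAMP from std curve; EC50.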

human CB1 receptors = human CB1 receptors (Homo sapiens (Human), UniProt P21554); experiment: functional cAMP assay, CHO cells expressing human CB1; format: cell-based
Sequence of human CB1 receptors (P21554 whole entry): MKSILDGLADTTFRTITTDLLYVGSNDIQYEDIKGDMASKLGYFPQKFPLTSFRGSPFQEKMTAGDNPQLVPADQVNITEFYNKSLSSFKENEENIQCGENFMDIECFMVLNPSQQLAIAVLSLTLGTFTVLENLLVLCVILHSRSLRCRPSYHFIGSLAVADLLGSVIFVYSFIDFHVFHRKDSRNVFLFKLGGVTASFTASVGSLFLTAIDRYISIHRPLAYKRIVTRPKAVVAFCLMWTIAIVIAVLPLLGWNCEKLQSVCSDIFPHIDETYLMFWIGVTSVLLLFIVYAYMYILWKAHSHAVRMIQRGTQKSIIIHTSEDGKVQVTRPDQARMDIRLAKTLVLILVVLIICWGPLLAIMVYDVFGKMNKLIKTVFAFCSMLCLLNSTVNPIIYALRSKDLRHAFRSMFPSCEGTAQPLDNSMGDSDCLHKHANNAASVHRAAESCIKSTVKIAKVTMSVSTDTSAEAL
How it was run: as §1

[1] = Human CB1 EC50 (uM), functional cAMP assay, CHO cells expressing human CB1
[2] = functional cAMP assay, CHO cells expressing human CB1; read-out: Human CB1 EC50
[3] = read-out: Human CB1 EC50; functional cAMP assay, CHO cells expressing human CB1

Sequence of human CB2 receptors (P34972 whole entry): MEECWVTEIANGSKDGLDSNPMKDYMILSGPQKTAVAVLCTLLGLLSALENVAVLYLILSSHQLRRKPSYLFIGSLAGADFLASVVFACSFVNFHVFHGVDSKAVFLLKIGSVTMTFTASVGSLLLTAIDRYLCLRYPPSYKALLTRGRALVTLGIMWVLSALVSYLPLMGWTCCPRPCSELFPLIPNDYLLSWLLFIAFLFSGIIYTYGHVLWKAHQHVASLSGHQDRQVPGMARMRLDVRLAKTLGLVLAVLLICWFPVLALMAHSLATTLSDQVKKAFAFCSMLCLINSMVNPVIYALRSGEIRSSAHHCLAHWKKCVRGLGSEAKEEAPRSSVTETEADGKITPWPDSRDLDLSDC

Row | SMILES | EC50 (human CB2 receptors; Human CB2 EC50 (uM)) [µM] | EC50 (human CB1 receptors; [1]) [µM] | EC50 (human CB2 receptors; read-out: Human CB2 EC50) [µM] | EC50 (human CB1 receptors; [2]) [µM] | EC50 (human CB1 receptors; [3]) [µM]
1 | CC(CC(N)=O)(NC(=O)c1cc(OCC(F)(F)F)c(C2(F)CCC2)cn1)C1CC1 (single isomer, unassigned) [Example 309, N-[4-amino-2-cyclopropyl-4-oxobutan-2-yl]-5-(1-fluorocyclobutyl)-4-(2,2,2-trifluoroethoxy)pyridine-2-carboxamide] | 0.002 | 0.475 | – | – | –
2 | Cc1nc(C(C)(CS(C)(=O)=O)NC(=O)c2cc(O[C@@H](C)C(F)(F)F)c(C3(O)CCC3)cn2)no1 (stereo partly drawn) [Example 126, 5-(1-hydroxycyclobutyl)-N-[2-(5-methyl-1,2,4-oxadiazol-3-yl)-1-methylsulfonylpropan-2-yl]-4-[(2S)-1,1,1-trifluoropropan-2-yl]oxypyridine-2-carboxamide] | – | – | 0.219 | > 10 | –
3 | Cc1nc(C(NC(=O)c2cc(OCC(F)(F)F)c(C3CC3)cn2)C(C)(C)C)no1 (stereo not shown) [Example 161, 5-cyclopropyl-N-[2,2-dimethyl-1-(5-methyl-1,2,4-oxadiazol-3-yl)propyl]-4-(2,2,2-trifluoroethoxy)pyridine-2-carboxamide] | – | – | 0.0088 | > 10 | –
4 | Cc1nc(C(C)(CS(C)(=O)=O)NC(=O)c2cc(O[C@@H](C)C(F)(F)F)c(C3CCC3)cn2)no1 (stereo partly drawn) [Example 118, 5-cyclobutyl-N-[2-(5-methyl-1,2,4-oxadiazol-3-yl)-1-methylsulfonylpropan-2-yl]-4-[(2S)-1,1,1-trifluoropropan-2-yl]oxypyridine-2-carboxamide] | – | – | 0.0017 | > 10 | –
5 | Cc1nc(C(C)(CC2CC2)NC(=O)c2cc(O[C@@H](C)C(F)(F)F)c(C3CC3)cn2)no1 (stereo partly drawn) [Example 101, 5-Cyclopropyl-4-((S)-2,2,2-trifluoro-1-methyl-ethoxy)-pyridine-2-carboxylic acid [2-cyclopropyl-1-methyl-1-(5-methyl-[1,2,4]oxadiazol-3-yl)-ethyl]-amide] | – | – | 0.0007 | 0.21 | –
6 | Cc1nc(C(C)(CS(C)(=O)=O)NC(=O)c2cc(O[C@@H](C)C(F)(F)F)c(C3(F)CCC3)cn2)no1 (stereo partly drawn) [Example 137, 5-(1-fluorocyclobutyl)-N-[2-(5-methyl-1,2,4-oxadiazol-3-yl)-1-methylsulfonylpropan-2-yl]-4-[(2S)-1,1,1-trifluoropropan-2-yl]oxypyridine-2-carboxamide] | – | – | 0.0105 | > 10 | –
7 | Cc1nc([C@](C)(NC(=O)c2cc(OCC(F)(F)F)c(N3CC(F)(F)C3)cn2)C2CC2)no1 (single isomer, unassigned; enantiomer a) [Example 87, 5-(3,3-Difluoro-azetidin-1-yl)-4-(2,2,2-trifluoro-ethoxy)-pyridine-2-carboxylic acid [1-cyclopropyl-1-(5-methyl-[1,2,4]oxadiazol-3-yl)-ethyl]-amide (enantiomer A)] | 0.0568 | > 10 | – | – | –
8 | CNC(=O)[C@@H](C)C(C)(C)NC(=O)c1cc(OCC2CC2)c(Cl)cn1 [Example 34, (−)-5-Chloro-4-cyclopropylmethoxy-pyridine-2-carboxylic acid (1,1-dimethyl-2-methylcarbamoyl-propyl)-amide] | – | – | 0.268 | > 10 | –
9 | Cc1nc([C@@](C)(NC(=O)c2cc(OCC(F)(F)F)c(N3CC(F)(F)C3)cn2)C2CC2)no1 (single isomer, unassigned) [Example 88, 5-(3,3-Difluoro-azetidin-1-yl)-4-(2,2,2-trifluoro-ethoxy)-pyridine-2-carboxylic acid [1-cyclopropyl-1-(5-methyl-[1,2,4]oxadiazol-3-yl)-ethyl]-amide] | 0.0105 | 1.79 | – | – | –
10 | Cc1nc(C(C)(NC(=O)c2cc(OCC(F)(F)F)c(C3CC3)cn2)C(=O)N2CC(F)(F)C2)no1 (stereo not shown) [Example 147, 5-cyclopropyl-N-[1-(3,3-difluoroazetidin-1-yl)-2-(5-methyl-1,2,4-oxadiazol-3-yl)-1-oxopropan-2-yl]-4-(2,2,2-trifluoroethoxy)pyridine-2-carboxamide] | – | – | 0.0454 | > 10 | –
11 | O=C(NC1(CO)CC1)c1cc(OCC2CC2)c(N2CC(F)(F)C2)cn1 [Example 53, 4-Cyclopropylmethoxy-5-(3,3-difluoro-azetidin-1-yl)-pyridine-2-carboxylic acid (1-hydroxymethyl-cyclopropyl)-amide] | – | – | 0.0726 | > 10 | –
12 | Cn1nnc(C(C)(CC2CC2)NC(=O)c2cc(OCC(F)(F)F)c(C3CC3)cn2)n1 (stereo not shown) [Example 150, 5-cyclopropyl-N-[1-cyclopropyl-2-(2-methyltetrazol-5-yl)propan-2-yl]-4-(2,2,2-trifluoroethoxy)pyridine-2-carboxamide] | – | – | 0.109 | > 10 | –
13 | Cc1nc(C(NC(=O)c2cc(O[C@@H](C)C(F)(F)F)c(C3CC3)cn2)C(C)(C)C)no1 (stereo partly drawn) [Example 220, 5-cyclopropyl-N-[2,2-dimethyl-1-(5-methyl-1,2,4-oxadiazol-3-yl)propyl]-4-[(2S)-1,1,1-trifluoropropan-2-yl]oxypyridine-2-carboxamide] | – | – | 0.0027 | > 10 | –
14 | Cc1nc(C(C)(CS(C)(=O)=O)NC(=O)c2cc(OCC(F)(F)F)c(C3CCC3)cn2)no1 (stereo not shown) [Example 109, 5-Cyclobutyl-4-(2,2,2-trifluoro-ethoxy)-pyridine-2-carboxylic acid [2-methanesulfonyl-1-methyl-1-(5-methyl-[1,2,4]oxadiazol-3-yl)-ethyl]-amide] | – | – | 0.0157 | > 10 | –
15 | CNC(=O)[C@@H](NC(=O)c1cc(O[C@@H](C)C(F)(F)F)c(C2(F)COC2)cn1)C(C)(C)C [Example 172, N-[(2S)-3,3-dimethyl-1-(methylamino)-1-oxobutan-2-yl]-5-(3-fluorooxetan-3-yl)-4-[(2S)-1,1,1-trifluoropropan-2-yl]oxypyridine-2-carboxamide] | – | – | 0.0329 | > 10 | –
16 | O=C(NCC1(O)CCCCC1)c1cc(OCC2CC2)c(C2CC2)cn1 [Example 57, 5-Cyclopropyl-4-cyclopropylmethoxy-pyridine-2-carboxylic acid (1-hydroxy-cyclohexylmethyl)-amide] | – | – | 0.013 | > 10 | –
17 | Cn1nnnc1C(NC(=O)c1cc(OCC(F)(F)F)c(C2CC2)cn1)C(C)(C)C (single isomer, unassigned) [Example 206, 5-cyclopropyl-N-[2,2-dimethyl-1-(1-methyltetrazol-5-yl)propyl]-4-(2,2,2-trifluoroethoxy)pyridine-2-carboxamide] | 0.0393 | – | – | – | > 10
18 | Cc1nc(C(C)(CC(C)(C)C)NC(=O)c2cc(OCC(F)(F)F)c(C3CC3)cn2)no1 (stereo not shown) [Example 97, 5-Cyclopropyl-4-(2,2,2-trifluoro-ethoxy)-pyridine-2-carboxylic acid [1,3,3-trimethyl-1-(5-methyl-[1,2,4]oxadiazol-3-yl)-butyl]-amide] | – | – | 0.0059 | > 10 | –
19 | Cc1nc(C(C)(CC2CC2)NC(=O)c2cc(OC(C)CF)c(C3CC3)cn2)no1 (single isomer, unassigned) [Example 288, 5-cyclopropyl-N-(1-cyclopropyl-2-(5-methyl-1,2,4-oxadiazol-3-yl)propan-2-yl)-4-(1-fluoropropan-2-yloxy)picolinamide] | 0.0008 | – | – | – | > 10
20 | Cc1nnc(C(NC(=O)c2cc(O[C@@H](C)C(F)(F)F)c(C3CC3)cn2)C2(C)COC2)o1 (stereo partly drawn) [Example 246, 5-cyclopropyl-N-[(5-methyl-1,3,4-oxadiazol-2-yl)-(3-methyloxetan-3-yl)methyl]-4-[(2S)-1,1,1-trifluoropropan-2-yl]oxypyridine-2-carboxamide] | – | – | 0.186 | > 10 | –
